In article PMC9697831 (Journal of Fungi, 2022):
Positions of bridges follow the written chain, without caps; N, C: chain ends. No end group written: not given here.

Legend:
hKv1.3 [1] = molecular target: T1, hKv1.3 (Homo sapiens, UniProt P22001); experiment: Whole-cell patch clamp of hKv1.3 currents in activated human T lymphocytes; assay type: cell-based; settings: for time needed to reach equilibrium (steady-state) block of hKv1.3: 1 nM; for Hill coefficient (H): Hill equation fit of concentration-response on hKv1.3, n = 3-5; for Activity on hKv1.3: RP-HPLC fraction of His-tagged recombinant peptide, patch clamp; for recovery from block on perfusion with toxin-free solution: washout
T1 construct: endogenous in cells
Description: Human venous blood from anonymized healthy donors was obtained from a blood bank. Peripheral blood mononuclear cells (PBMCs) were isolated by density gradient centrifugation using Histopaque1077 (Cat. No 10771). The obtained cells were resuspended in RPMI 1640 medium containing 10% fetal calf serum, 100 μg/mL penicillin, 100 μg/mL streptomycin, and […], seeded at a density of 5 × 10^5 cells per ml in a 24-well culture plate and grown in a 5% CO2 incubator at 37 °C for 2–5 days. Phytohemagglutinin A (Cat. No. L1668) was added to the medium at concentrations of 5, 7, and 10 μg/mL to increase the voltage-gated potassium ion channel expression.
Electrophysiological measurements were performed by using the patch clamp technique in a whole-cell configuration on voltage-clamped cells using the Axon Multiclamp 700B amplifier and the Axon Digidata1440 digitizer; the Clampex 10.7 software was used for data acquisition (all from Molecular Devices, Sunnyvale, CA, USA). Micropipettes were pulled from GC150F-15 borosilicate capillaries (Harvard Apparatus Kent, Edenbridge, UK), resulting in 3–4 MΩ resistance in the bath solution. The extracellular solution (bath solution) contained 145 mM NaCl, 5 mM KCl, 1 mM MgCl2, 2.5 mM CaCl2, 5.5 mM glucose, and 10 mM HEPES, with a pH of 7.35 and an osmolarity between 302 and 308 mOsM/L. The pipette filling solution (intracellular) consisted of 140 mM KF, 2 mM MgCl2, 1 mM CaCl2, 10 mM HEPES, and 11 mM EGTA, with a pH of 7.22 and an osmolarity of 295 mOsM/L. When the toxins were dissolved in bath solution at different molar concentrations, they were supplemented with 0.1 mg/mL bovine serum albumin (BSA). To record hKv1.3 in activated human T lymphocytes (Kv1.3 overexpression), 15 ms-long depolarizing pulses were applied at +50 mV from a holding potential of −120 mV every 15 s. Current traces were low-pass filtered by the analog four-pole Bessel filters of the amplifiers, and the sampling frequency was set at 20 kHz, which was at least twice that of the filter cutoff frequency. The control and test solutions were perfused into the cell through a gravity flow perfusion system. The excess bath solution was constantly removed with vacuum suction.
The effect of the toxin at a given molar concentration was calculated as the remaining current fraction (RCF = I/I0, where I0 is the peak current in the absence of the toxin and I is the peak current at the equilibrium block at a given toxin concentration). The data points on the dose-response curves represent the mean of 3–5 individual measurements. The data points were fitted with the Hill equation, RCF=KdH/KdH+toxin^H where [toxin] is the concentration of the toxin and H is the Hill coefficient. The best fit curve gave the Kd value of a given toxin.

Kv1.3 channel = settings: ref 11 (charybdotoxin), 12 (noxiustoxin), 13 (Vm24), 14 (ShK), 15 (margatoxin), 16 (HsTx1); cited from earlier work
Text: Voltage-gated potassium (Kv) channels regulate the selective efflux of K^+ through the plasma membrane, thereby shaping the action potentials in excitable cells and regulating many other cellular functions in non-excitable cells. The Kv channel family includes 12 subfamilies (Kv1-Kv12). The Kv1 (Shaker) subfamily consists of eight voltage-gated potassium channels belonging to the delayed rectifier class (Kv1.1–Kv1.8). Of this Kv subfamily, the Kv1.3 channel is mainly expressed in neurons and immune cells, and therefore, channel inhibition in these cells may be useful in the t ...

rat Kv1.3 (rKv1.3) = settings: rKv1.3 expressed in oocytes; cited from earlier work
Text: Anuroctoxin (AnTx, α-KTx 6.12) is a small peptide consisting of 35 amino acids (4109 Da). […] Ts6 (α-KTx 12.1) consists of 40 amino acids with a molecular mass of 4506 Da. Ts6 was isolated from the venom of the scorpion Tytyus serrulatus and inhibits hKv1. ... || In the preliminary experiments to evaluate the biological activity of the recombinant toxins, peptide concentrations slightly higher than the reported Kd values for the native toxins were used.

hKv1.3 [2] = molecular target: T1, hKv1.3; settings: 100 nM, hKv1.3 expressed in CHO cells; cited from earlier work
Description: As mentioned earlier, the Kd values of Tag-Vm24 and Untag-AnTx were very similar to those reported for the native toxins. […] The Kd value of the native Ts6 was determined using Xenopus oocytes expressing rat Kv1.3 (rKv1.3). […] Differences in the type of cell expression system as well as the use of a channel from di ...

T1 sequence (P22001 whole entry, the tested form may be a part): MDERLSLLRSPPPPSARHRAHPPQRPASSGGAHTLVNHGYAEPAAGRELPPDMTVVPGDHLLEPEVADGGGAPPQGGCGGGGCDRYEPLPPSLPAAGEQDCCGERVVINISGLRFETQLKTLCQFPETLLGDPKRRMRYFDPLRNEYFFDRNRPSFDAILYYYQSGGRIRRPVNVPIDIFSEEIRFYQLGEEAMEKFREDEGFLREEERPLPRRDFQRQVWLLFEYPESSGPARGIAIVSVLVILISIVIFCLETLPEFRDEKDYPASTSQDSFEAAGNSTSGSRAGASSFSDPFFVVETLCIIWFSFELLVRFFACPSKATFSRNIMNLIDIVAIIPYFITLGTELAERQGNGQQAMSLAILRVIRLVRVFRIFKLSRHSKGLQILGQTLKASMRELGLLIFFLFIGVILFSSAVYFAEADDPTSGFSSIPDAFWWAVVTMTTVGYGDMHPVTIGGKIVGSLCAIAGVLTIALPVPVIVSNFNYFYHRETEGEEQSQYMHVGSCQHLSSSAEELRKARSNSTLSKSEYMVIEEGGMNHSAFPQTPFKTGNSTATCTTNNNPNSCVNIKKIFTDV

Compound | Hill coefficient (H) (hKv1.3 [1]) | Activity on hKv1.3 (hKv1.3 [1]) | recovery from block on perfusion with toxin-free solution (hKv1.3 [1]) | concentration range in which the toxin blocks the Kv1.3 channel (Kv1.3 channel) | further results
CSCC[C@@H]1NC(=O)[C@@H]2CSSC[C@H](NC(=O)[C@H](CCC(=O)O)NC(=O)[C@H](CCCCN)NC(=O)[C@H](CCC(N)=O)NC(=O)[C@H](CCCCN)NC(=O)[C@H](CC(=O)O)NC(=O)[C@H](CC(=O)O)NC(=O)[C@H](CC(=O)O)NC(=O)[C@H](CC(=O)O)NC(=O)[C@H](Cc3c[nH]cn3)NC(=O)[C@H](Cc3c[nH]cn3)NC(=O)[C@H](Cc3c[nH]cn3)NC(=O)[C@H](Cc3c[nH]cn3)NC(=O)[C@H](Cc3c[nH]cn3)NC(=O)[C@H](Cc3c[nH]cn3)NC(=O)[C@H](CCC(N)=O)NC(=O)[C@H](CC(C)C)NC(=O)[C@H](Cc3ccccc3)NC(=O)[C@@H](N)CCC(=O)O)C(=O)N[C@@H]([C@@H](C)O)C(=O)NCC(=O)N3CCC[C@H]3C(=O)N[C@@H](CCC(N)=O)C(=O)N[C@@H](Cc3c[nH]cn3)C(=O)N[C@H]3CSSC[C@H](NC(=O)[C@H](CCCCN)NC(=O)[C@H](CCCNC(=N)N)NC(=O)[C@H](CC(N)=O)NC1=O)C(=O)N[C@@H](CCCCN)C(=O)N[C@H]1CSSC[C@H](NC(=O)[C@H](Cc4ccccc4)NC(=O)[C@H](CC(N)=O)NC(=O)[C@H]([C@@H](C)O)NC3=O)C(=O)N[C@@H](CCCNC(=N)N)C(=O)N[C@@H](CCCCN)C(=O)N[C@@H](CC(N)=O)C(=O)N[C@@H](CCCCN)C(=O)N[C@@H](CSSC[C@@H](C(=O)N[C@@H](CCCCN)C(=O)O)NC(=O)[C@H](CC(N)=O)NC(=O)[C@H](Cc3ccccc3)NC1=O)C(=O)N[C@@H]([C@@H](C)O)C(=O)N[C@@H](Cc1c[nH]cn1)C(=O)NCC(=O)N[C@@H](CCCCN)C(=O)N2 [Tag-AnTx] | 0.91 | Positive | full recovery |  | time needed to reach equilibrium (steady-state) block of hKv1.3 (hKv1.3 [1]): ~ 2.5 min
CSCC[C@@H]1NC(=O)[C@@H]2CSSC[C@H](NC(=O)[C@H](CCC(=O)O)NC(=O)[C@H](CCCCN)NC(=O)[C@@H](N)CCC(N)=O)C(=O)N[C@@H]([C@@H](C)O)C(=O)NCC(=O)N3CCC[C@H]3C(=O)N[C@@H](CCC(N)=O)C(=O)N[C@@H](Cc3c[nH]cn3)C(=O)N[C@H]3CSSC[C@H](NC(=O)[C@H](CCCCN)NC(=O)[C@H](CCCNC(=N)N)NC(=O)[C@H](CC(N)=O)NC1=O)C(=O)N[C@@H](CCCCN)C(=O)N[C@H]1CSSC[C@H](NC(=O)[C@H](Cc4ccccc4)NC(=O)[C@H](CC(N)=O)NC(=O)[C@H]([C@@H](C)O)NC3=O)C(=O)N[C@@H](CCCNC(=N)N)C(=O)N[C@@H](CCCCN)C(=O)N[C@@H](CC(N)=O)C(=O)N[C@@H](CCCCN)C(=O)N[C@@H](CSSC[C@@H](C(=O)N[C@@H](CCCCN)C(=O)O)NC(=O)[C@H](CC(N)=O)NC(=O)[C@H](Cc3ccccc3)NC1=O)C(=O)N[C@@H]([C@@H](C)O)C(=O)N[C@@H](Cc1c[nH]cn1)C(=O)NCC(=O)N[C@@H](CCCCN)C(=O)N2 [Untag-AnTx] |  |  |  |  | Kd (hKv1.3 [1]; whole-cell patch clamp, activated human peripheral T lymphocytes, 15 ms pulses to +50 mV from -120 mV every 15 s, Hill equation fitted to remaining current fraction, mean ± SEM, n = 3-5, read-out: Kd for block of hKv1.3): 0.73 nM
EFHHHHHHDDDDKWCSTCLDLACGASRECYDPCFKAFGRAHGKCMNNKCRCYT (disulfide 15-18, 23-44, 29-49, 33-51) [Tag-Ts6] | 1.06 | Positive | complete recovery |  | block of more than 50% of the Kv1.3 current (hKv1.3 [1]; 100 nM, 6x-His-tagged peptide): could not be replicated; time of onset of equilibrium block and complete recovery of peak current (hKv1.3 [1]; progressively increasing concentrations): a few seconds
EFLQHHHHHHIEGRAAAISCVGSPECPPKCRAQGCKNGKCMNRKCKCYYC (disulfide 20-40, 26-45, 30-47, 35-50) [Tag-Vm24] | 0.92 | Positive | not reversible |  | time needed to achieve equilibrium block of hKv1.3 (hKv1.3 [1]; 10 pM): ~ 25 min; time needed to reach equilibrium (steady-state) block of hKv1.3 (hKv1.3 [1]): ~ 5 min
charybdotoxin |  |  |  | nanomolar range | 
margatoxin (TIINVKCTSPKQCLPPCKAQFGQSAGAKCMNGKCKCYPH; UniProt P40755 1-39, looked up) |  |  |  | picomolar range | 
maurotoxin (VSCTGSKDCYAPCRKQTGCPNAKCINKSCKCYGC; UniProt P80719 1-34, looked up) |  |  |  |  | Kd (rat Kv1.3 (rKv1.3)): 180 nM; sensitivity of hKv1.3 to the toxin (hKv1.3 [2]): almost insensitive
noxiustoxin: toxin that blocks the Kv1.3 channel (TIINVKCTSPKQCSKPCKELYGSSAGAKCMNGKCKCYNN; UniProt P08815 1-39, looked up) |  |  |  | nanomolar range | 
